Assay results taken from patent US10450378B2, “Cytotoxic and anti-mitotic compounds, and methods of using the same” (priority 2014, dated 2019).

Legend:
HCC1954 cell line = assay: Cytotoxicity of compounds of Formula I, Example 3 (CellTiter-Glo); type: cell-based; conditions: Homo sapiens, 72 h, 3 days incubation
Method: (§1) Compounds were tested on Jurkat and HCC1954 cell lines to assess their cytotoxicity. Compounds were titrated 1:3 starting at various concentrations (30 nM to 1000 nM). Control cytotoxin HTI-286 (see, e.g., U.S. Pat. No. 7,579,323) was also titrated 1:3 across starting with a 30 nM concentration. Plates were incubated for 3 days. Cell viability was quantified using 30 μL/well of 1× CellTiter-Glo reagent.
(§2) Each cell line was grown in its respective growth medium until seeding day. Cells were removed from their culture vessels and the resulting cell suspension was counted using the ViCell. Cells were then diluted in their growth medium to 25000/mL such that 100 μL/well=2500 cells/well. Each cell line was seeded in the inner 60 wells of 96-well black walled TC plates, outer wells filled with water. HCC1954 were seeded a day prior to assay set up. Cytotoxins were diluted as described below a 5× dose-response of each compound was prepared using RPMI+10% FBS in a deep-well 96-well plate. This “master” dilution plate was used for each cell line. 25 μL of the 5× dose responses was spiked into each cell line in triplicate. The plates were returned to the incubator and were incubated for 3 nights. After the 3 nights, cell viability was quantified using 30 μL/well of 1× CellTiter-glo reagent. After at least 10 minutes of incubation, the luminescence was measured using the SpectraMax (500 ms integration).

[1] = system: Human Pancreatic cell line BxPC-3; assay: Cellular cytotoxicity of compounds of Formula I, Example 3.1; type: cell-based; conditions: five nights, CellTiter-Glo
Method: (§3) Compounds were tested on one or more of Human T-cell leukemia cell line Jurkat (ATCC: TIB-152); Human breast cancer cell lines HCC1954 (ATCC: CRL-2338) and JIMT-1 (DSMZ: ACC 589); Human Pancreatic cell line BxPC-3 (ATCC: CRL.1687), Human ovarian adenocarcinoma cell line SK-OV-3 (ATCC: HTB-77) and Human gastric carcinoma cell line NCI-N87 (ATCC: CRL. 5822); to assess their cytotoxicity.
(§4) Briefly, cells were obtained from commercial sources and cultured as described in the product sheet provided. Cells were removed from their culture vessels and the resulting cell suspension was counted using a ViCell (Beckman Coulter), then seeded at 25,000 cells/mL (2,500 cells/well) in Costar 3904 black walled, flat bottomed 96-well plates (cells were seeded in the inner 60 wells of 96-well TC plates, and outer edge wells filled with water). Adherent cell lines were incubated for one night at 37° C./5% CO2 atmosphere to allow the cells to attach to the microtiter plate surface, while suspension (Jurkat) cells were plated immediately before use. Cytotoxins were dissolved and serially diluted in dimethyl sulfoxide and then the solutions were added to complete growth medium at five-times the desired maximum final concentration. The cytotoxins were then titrated in growth medium, normally 1:3, over eight steps. A control with no test article present (growth medium alone) was included on each microtiter plate in sextuplicate. The prepared toxin titrations were added (25 μL/well) in triplicate to each cell line assayed. The cells and titrations were incubated at 37° C./5% CO2 for three nights (Jurkat) and five nights (all other cell lines). After the incubation, cell viability was measured using CellTiter-Glo® by adding 30 μL of prepared CellTiter-Glo® reagent to each assay well. The mixtures were incubated for at least twenty minutes in the dark prior to measuring emitted luminescence using a microplate luminometer (500 ms integration time). The collected relative luminescence units (RLU) were converted to % cytotoxicity using the growth medium alone control mentioned above (% Cytotoxicity=1-[well RLU/average medium alone control RLU]×100%).

[2] = system: Human gastric carcinoma cell line NCI-N87; assay: as above; type: cell-based; conditions: five nights, CellTiter-Glo
Method: as §3, §4

[3] = system: Human breast cancer cell line JIMT-1; assay: as above; type: cell-based; conditions: five nights, CellTiter-Glo
Method: as §3, §4

[4] = system: Human breast cancer cell line HCC1954; assay: as above; type: cell-based; conditions: five nights, CellTiter-Glo, read-out: EC50 (nM) HCC-1954
Method: as §3, §4

[5] = system: Human ovarian adenocarcinoma cell line SK-OV-3; assay: as above; type: cell-based; conditions: five nights, CellTiter-Glo, read-out: EC50 (nM) SKOV-3
Method: as §3, §4

[6] = system: Human T-cell leukemia cell line Jurkat; assay: as above; type: cell-based; conditions: Homo sapiens; Jurkat; three nights; CellTiter-Glo; read-out: EC50 (nM) Jurkat
Method: as §3, §4

Jurkat cell line = assay: Cytotoxicity of compounds of Formula I, Example 3 (CellTiter-Glo); type: cell-based, Human; conditions: Homo sapiens, 72 h, 3 days incubation, CellTiter-Glo, read-out: EC50
Method: as §1, §2

Jurkat cells = assay: Cell cycle arrest assay; type: cell-based, Human; conditions: 50 nM, 24 h, propidium iodide
Method: Jurkat cells (ATCC), cultured in RMPI-1640 media supplemented with 10% FBS, were obtained in logarithmic growth. 1 million cells/ml were seeded into a 12-well tissue-culture treated plate in a 950 μL, volume. Cells were treated with Compound 5 in 50 μL of growth media such that the final concentration of Compound 5 was 50 nM, control cells were given 50 μL of growth media alone. Cells were incubated for 24 h at 37° C., 5% CO2 in a humidified incubator. Following incubation, cells were thoroughly resuspended and transferred to 5 mL FACS tubes, and stored on ice. Two washes were performed by spinning cells down in a swinging-bucket centrifuge at 450×g for 4 min, resuspending in 1 mL ice-cold PBS. Cells were fixed through the addition of 3 mL ice-cold 100% ethanol in a dropwise fashion under vortex, and immediately stored at 4° C. for 1 h. During the 1 h incubation, the following staining solution was prepared in ice-cold PBS: 10 μg/ml propidium iodide, 10 U/ml RNAse 1f, and 0.05% Triton X-100. Following the 1 h fixation incubation, ethanol was removed by spinning cells as described above, and washing twice in 1 mL ice-cold PBS. Cells were resuspended in 500 μL of the above-mentioned staining solution, and incubated at room temperature for 1 h. […] Histograms were generated using FCS Express, plotting # of events against fluorescence in FL-3.

CC[C@H](C)[C@@H]([C@@H](CC(=O)N1CCC[C@H]1[C@H](OC)[C@@H](C)C(=O)NS(=O)(=O)c1ccc(N)cc1)OC)N(C)C(=O)[C@@H](NC(=O)[C@H](C(C)C)N(C)C)C(C)C [Compound 5, (S)-N-((3R,4S,5S)-1-((S)-2-((1R,2R)-3-(4-Aminophenylsulfonamido)-1-methoxy-2-methyl-3-oxopropyl)pyrrolidin-1-yl)-3-methoxy-5-methyl-1-oxoheptan-4-yl)-2-((S)-2-(dimethylamino)-3-methylbutanamido)-N,3-dimethylbutanamide]
EC50 (HCC1954 cell line): 0.0089 µM | EC50 [1]: 18.2 nM | EC50 [2]: 12 nM | EC50 [3]: 9.3 nM | EC50 [4]: 8.9 nM | EC50 [5]: 23.7 nM | EC50 [6]: 13.6 nM | EC50 (Jurkat cell line): 0.0168 µM | Cell cycle phase (DNA content histograms) (Jurkat cells): pronounced shift towards G2/M phase
